{"source": "patent US4016176A", "about": "“Esters of 4-hydroxy-2,9-dioxatricyclo[4.3.1.0^3,7 ] decanes and processes for their production” (Kali-Chemie Pharma GmbH, priority 1973, dated 1977)", "key": {"mouse [1]": {"system": "mouse", "test": "lowering of the rectal temperature in mice", "type": "in vivo", "text": "(§1) The values specified in Tables 4 and 5 hereinafter refer to milligrams per kilogram of body weight of the mouse.\n(§2) Tests performed in accordance with the procedure described by Campbell and Richter in Acta Pharmacol. et Toxicol., vol. […] This is indicated by the results that are reported in Table 5 in which the headings A and F have the same significance as hereinbefore while the values in the column heading L pertain to the dose in milligrams per kilogram of body weight that was required to produce a lowering of the rectal temperature, which are values indicative of the depressant effect of a compound upon the central nervous system."}, "[2]": {"test": "acute toxicity (LD50) in mice", "type": "in vivo, mouse", "conditions": "mouse, in vivo, mouse", "text": "(§3) In the Table 3 which follows are listed results of tests pertaining to the effectiveness of various compounds that are disclosed herein. The results are included in the several columns under letters whose significance is as follows:\nA - lethal dose (LD50) to mice in milligrams per kilogram of body weight of the mouse when administered per os.\nB - lethal dose (LD50) to mice in milligrams per kilogram of body weight of the mouse when administered intraperitoneally.\nA. lethal dose (LD50) to mice in milligrams per kilogram body weight of the mouse when administered per os.\nB. lethal dose (LD50) to mice in milligrams per kilogram body weight of the mouse administered intraperitoneally.\nas §1, §2"}, "white mice [3]": {"system": "white mice", "test": "climbing test (Campbell and Richter screening)", "type": "in vivo", "conditions": "mouse; Table 4; read-out: J. climbing test (ED50)", "text": "(§4) The sedative and hypnotic effectiveness of the compounds of the invention were also ascertained by screening tests with white mice described by Campbell and Richter in Acta Pharmacol. et Toxicol. 25 (1967) page 345. In Table 4 the results of various specific screening tests are listed. These tests were as follows:\nas §1"}, "white mice [4]": {"system": "white mice", "test": "balance bar test (Campbell and Richter screening)", "type": "in vivo", "conditions": "mouse; Table 4; read-out: K. balance bar test (ED50)", "text": "as §4\nK. balance bar test (ED50).\nas §1"}, "mice": {"system": "mice", "test": "narcosis (lateral position) in mice", "type": "in vivo, mouse", "conditions": "ip, 0.05 h, read-out: D - narcosis (lateral position): dose (ED50) which produces narcosis for 3 minutes in 50% of the mice; mouse, intraperitoneal, narcosis for 3 minutes; Table 3", "text": "In the Table 3 which follows are listed results of tests pertaining to the effectiveness of various compounds that are disclosed herein."}, "mouse [5]": {"system": "mouse", "test": "ataxia in mice", "type": "in vivo", "conditions": "Mus musculus, read-out: C - ataxia: dose required to produce ataxia in a mouse, mouse; Table 3", "text": "as §3\nC - ataxia: Dose in milligrams per kilogram of body weight required to produce ataxia in a mouse."}, "[6]": {"conditions": "ip, intraperitoneal, Table 4, read-out: B. lethal dose (LD50) to mice, intraperitoneally"}, "[7]": {"conditions": "po, per os, Table 4, read-out: A. lethal dose (LD50) to mice, per os"}, "[8]": {"conditions": "ip, intraperitoneal, Table 3, read-out: B - lethal dose (LD50) to mice, intraperitoneally"}, "[9]": {"conditions": "po, per os, Table 3, read-out: A - lethal dose (LD50) to mice, per os"}}, "note": "Where two headings read alike, the source gives them in different places.", "data": [{"smiles": "C=C1C2OC(OC)C3C1CC(OC(=O)CC(C)C)C3(C)O2", "note": "(stereo not drawn) [Compound No. 2295, 4α-Isovaleryloxy-8-methoxy-3-methyl-10-methylene-2,9-dioxatricyclo[4.3.1.0^3,7]decane]", "values": [{"measurement": "dose required to produce a lowering of the rectal temperature, relative to the 4-hydroxy compound (in words)", "setting": "mouse [1]; compared with Compound No. 2090", "result": "smaller"}, {"measurement": "minimal effective dose", "setting": "mouse [1]; mouse, Table 5, read-out: L dose required to produce a lowering of the rectal temperature", "result": 100, "unit": "mg/kg"}, {"measurement": "LD50", "setting": "[2]; po, per os, Table 5, read-out: A lethal dose (LD50) to mice, per os", "result": "> 1470", "unit": "mg/kg"}]}, {"smiles": "COC1OC2OC3(C)C(OC(=O)NC4CCCCC4)CC(C2C)C13", "note": "(stereo not drawn) [Compound No. 2365, 4α-(N-Cyclohexylcarbamyloxy)-8-methoxy-3,10-dimethyl-2,9-dioxatricyclo[4.3.1.0^3,7]decane]", "values": [{"measurement": "LD50", "setting": "[2]; [6]", "result": 832, "unit": "mg/kg"}, {"measurement": "LD50", "setting": "[2]; [7]", "result": 1470, "unit": "mg/kg"}, {"measurement": "ED50", "setting": "white mice [3]", "result": 150, "unit": "mg/kg"}, {"measurement": "ED50", "setting": "white mice [4]", "result": 137, "unit": "mg/kg"}]}, {"smiles": "CCNC(=O)OC1CC2C(C)C3OC(OCC)C2C1(C)O3", "note": "(centres unmarked) [compound 2157]", "values": [{"measurement": "LD50", "setting": "[2]; [8]", "result": 527, "unit": "mg/kg"}, {"measurement": "LD50", "setting": "[2]; [9]", "result": 1470, "unit": "mg/kg"}, {"measurement": "ED50", "setting": "mice", "result": 100, "unit": "mg/kg"}]}, {"smiles": "C=C1C2OC(OCC)C3C1CC(OC(=O)NCC)C3(C)O2", "note": "(centres unmarked) [compound 2179]", "values": [{"measurement": "minimal effective dose", "setting": "mouse [5]", "result": "< 100", "unit": "mg/kg"}, {"measurement": "LD50", "setting": "[2]; [8]", "result": 802, "unit": "mg/kg"}, {"measurement": "LD50", "setting": "[2]; [9]", "result": 944, "unit": "mg/kg"}, {"measurement": "ED50", "setting": "mice", "result": "< 100", "unit": "mg/kg"}]}, {"smiles": "CCCCNC(=O)OC1CC2C(C)C3OC(OC)C2C1(C)O3", "note": "(centres unmarked) [compound 2327]", "values": [{"measurement": "LD50", "setting": "[2]; [6]", "result": 432, "unit": "mg/kg"}, {"measurement": "LD50", "setting": "[2]; [7]", "result": 690, "unit": "mg/kg"}, {"measurement": "ED50", "setting": "white mice [3]", "result": 56, "unit": "mg/kg"}, {"measurement": "ED50", "setting": "white mice [4]", "result": 18, "unit": "mg/kg"}]}, {"smiles": "COC1OC2OC3(C)C(OC(=O)NC(C)(C)C)CC(C2C)C13", "note": "(centres unmarked) [compound 2328]", "values": [{"measurement": "LD50", "setting": "[2]; [6]", "result": 1130, "unit": "mg/kg"}, {"measurement": "LD50", "setting": "[2]; [7]", "result": 1470, "unit": "mg/kg"}, {"measurement": "ED50", "setting": "white mice [3]", "result": 175, "unit": "mg/kg"}, {"measurement": "ED50", "setting": "white mice [4]", "result": 56, "unit": "mg/kg"}]}, {"smiles": "CCCNC(=O)OC1CC2C(C)C3OC(OC)C2C1(C)O3", "note": "(centres unmarked) [compound 2364]", "values": [{"measurement": "LD50", "setting": "[2]; [6]", "result": 244, "unit": "mg/kg"}, {"measurement": "LD50", "setting": "[2]; [7]", "result": 327, "unit": "mg/kg"}, {"measurement": "ED50", "setting": "white mice [3]", "result": 44, "unit": "mg/kg"}, {"measurement": "ED50", "setting": "white mice [4]", "result": 38, "unit": "mg/kg"}]}, {"smiles": "C=C1C2OC(OC)C3C1CC(OC(=O)NCCC)C3(C)O2", "note": "(centres unmarked) [compound 2388]", "values": [{"measurement": "LD50", "setting": "[2]; [6]", "result": 516, "unit": "mg/kg"}, {"measurement": "LD50", "setting": "[2]; [7]", "result": 619, "unit": "mg/kg"}, {"measurement": "ED50", "setting": "white mice [3]", "result": 75, "unit": "mg/kg"}, {"measurement": "ED50", "setting": "white mice [4]", "result": 33, "unit": "mg/kg"}]}, {"smiles": "CNC(=O)OC1CC2C(C)C3OC(OC)C2C1(C)O3", "note": "(centres unmarked) [compound 2500]", "values": [{"measurement": "LD50", "setting": "[2]; [6]", "result": 954, "unit": "mg/kg"}, {"measurement": "LD50", "setting": "[2]; [7]", "result": 1140, "unit": "mg/kg"}, {"measurement": "ED50", "setting": "white mice [3]", "result": 250, "unit": "mg/kg"}, {"measurement": "ED50", "setting": "white mice [4]", "result": 621, "unit": "mg/kg"}]}, {"smiles": "C=C1C2OC(OC)C3C1CC(OC(=O)NC)C3(C)O2", "note": "(centres unmarked) [compound 2504]", "values": [{"measurement": "LD50", "setting": "[2]; [6]", "result": 492, "unit": "mg/kg"}, {"measurement": "LD50", "setting": "[2]; [7]", "result": 528, "unit": "mg/kg"}, {"measurement": "ED50", "setting": "white mice [4]", "result": 200, "unit": "mg/kg"}]}, {"smiles": "C=CCNC(=O)OC1CC2C(=C)C3OC(OCC)C2C1(C)O3", "note": "(centres unmarked) [compound 2658]", "values": [{"measurement": "LD50", "setting": "[2]; [6]", "result": 331, "unit": "mg/kg"}, {"measurement": "LD50", "setting": "[2]; [7]", "result": 470, "unit": "mg/kg"}, {"measurement": "ED50", "setting": "white mice [3]", "result": 185, "unit": "mg/kg"}, {"measurement": "ED50", "setting": "white mice [4]", "result": 62, "unit": "mg/kg"}]}]}
